Measurements from paper PMC9416200, “Antifungal Potential of Synthetic Peptides against Cryptococcus neoformans: Mechanism of Action Studies Reveal Synthetic Peptides Induce Membrane–Pore Formation, DNA Degradation, and Apoptosis” (Pharmaceutics, 2022).
≈ marks a conversion by molar mass, not a printed value.

Legend:
[1] = test system: C. neoformans infection; set-up: method as in PMID 34203688; details: treated mice; cited from earlier work
[2] = test system: laccase from C. neoformans; details: cited from earlier work
[3] = test system: Cryptococcus neoformans (ATCC 32045); test: Minimum inhibitory concentration assay, broth microdilution; format: cell-based; details: YPD, 10^6 cells mL^−1, peptides 50 to 0.004 µg mL^−1, 24 h, absorbance 600 nm, ND = MIC50 not reached, three independent experiments

O=c1oc2c(O)c(O)cc3c(=O)oc4c(O)c(O)cc1c4c23 [EA, Ellagic acid]
survival rate toward C. neoformans infection [1]: 70% | inhibition of laccase from C. neoformans [2]: interacts and inhibits the laccase

CCC(C)n1ncn(-c2ccc(N3CCN(c4ccc(OCC5COC(Cn6cncn6)(c6ccc(Cl)cc6Cl)O5)cc4)CC3)cc2)c1=O (centres unmarked) [Itraconazole]
MIC50 ([3]; Cryptococcus neoformans, ATCC32045, concentration required to inhibit 50% of yeast growth, read-out: MIC50 against C. neoformans): 500 µg/mL (≈ 709 µM)

C[C@@H]1[C@H](O)[C@@H](C)/C=C/C=C/CC/C=C/C=C/C=C/C=C/C(O[C@H]2O[C@H](C)[C@@H](O)[C@H](N)[C@@H]2O)CC2O[C@](O)(CC(O)C(O)CCC(O)CC(O)CC(O)CC(=O)O[C@H]1C)CC(O)C2C(=O)O (some centres unmarked) [Nystatin]
MIC50 against C. neoformans ([3]; concentration required to inhibit 50% of yeast growth): 250 µg/mL (≈ 270 µM)

OC(Cn1cncn1)(Cn1cncn1)c1ccc(F)cc1F [fluconazole]
survival rate toward C. neoformans infection [1]: 20%
